Measurements as given in patent US20170142972A1, “ANTIMICROBIAL COMPOSITION INHIBITS BACTERIA AND FUNGI” (Troy Corporation, priority 2017, published 2017).

System: Pseudomonas aeruginosa (ATCC #10145), Escherichia coli (ATCC #11229), Enterobacter aerogenes (ATCC #13048), and Alcaligenes faecalis (ATCC #25094)
Assay: Challenge Method for Quantifying Antibacterial Effectiveness (two 7-day cycles, mixed bacterial inoculum)
Type: cell-based
Conditions: agent alone
Method: In order to quantify the relative antibacterial effectiveness of an antimicrobial composition, samples are prepared by adding various amounts of the antimicrobial composition to identical volumes of a sterile test material. […] Each of the samples is subjected to a two-part challenge procedure and the sample that provides acceptable anti-bacterial protection with the lowest concentration of the antimicrobial composition is identified. Each part of the anti-bacterial challenge consists of a 7-day test cycle. The parts are performed consecutively over 14 test days. […] Challenge testing is accomplished using a mixed bacterial inoculum as the contamination event. These bacteria are Pseudomonas aeruginosa (ATCC #10145), Escherichia coli (ATCC #11229), Enterobacter aerogenes (ATCC #13048), and Alcaligenes faecalis (ATCC #25094). To make the test inoculum, each type of bacteria is grown separately in nutrient broth. Just before use in the challenge test, equal volumes of the four types of bacteria are blended together to make a mixed inoculum. After incubation, both control blanks and samples containing preservative are inoculated with the mixed inoculum. […] Performance ratings of 0, 1, 2, 3 or 4 for each test sample are determined by visual inspection according to the definitions set forth below in Table 1.

O=c1[nH]sc2ccccc12 [BIT, benzisothiazolinone]
concentration alone required to provide the required protection against bacterial growth on Test Day 14 (adhesive): at least 0.013%
concentration alone required to provide the required protection against bacterial growth on Test Day 14 (paint): at least 0.004%
